# According to the Kinase Knowledgebase extract (Sharma et al. 2016):
# Assays:
# EGFR = EGFR (UniProt P00533); settings: concentration not given here
# ROCK2 = ROCK2 (UniProt O75116); assay: Inhibition of ROCK2 Kinase Activity; settings: for inhibition: concentration not given here
# CDK2 = CDK2 (UniProt P24941); assay: Enzyme Assay; settings: for inhibition: concentration not given here
# MAPK14 = MAPK14 (UniProt Q16539); assay: Inhibition of MAPK14 Kinase Activity; settings: concentration not given here
# Chain of MAPK14 (Q16539 whole entry, looked up): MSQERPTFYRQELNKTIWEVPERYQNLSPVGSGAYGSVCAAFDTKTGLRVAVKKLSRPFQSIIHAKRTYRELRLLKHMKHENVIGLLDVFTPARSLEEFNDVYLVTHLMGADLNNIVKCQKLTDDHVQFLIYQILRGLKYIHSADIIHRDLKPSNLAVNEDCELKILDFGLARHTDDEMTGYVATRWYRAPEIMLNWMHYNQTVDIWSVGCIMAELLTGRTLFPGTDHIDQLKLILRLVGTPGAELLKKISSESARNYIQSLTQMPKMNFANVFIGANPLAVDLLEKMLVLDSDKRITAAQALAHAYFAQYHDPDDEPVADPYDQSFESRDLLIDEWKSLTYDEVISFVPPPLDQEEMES
# Chain of EGFR (P00533 whole entry, looked up): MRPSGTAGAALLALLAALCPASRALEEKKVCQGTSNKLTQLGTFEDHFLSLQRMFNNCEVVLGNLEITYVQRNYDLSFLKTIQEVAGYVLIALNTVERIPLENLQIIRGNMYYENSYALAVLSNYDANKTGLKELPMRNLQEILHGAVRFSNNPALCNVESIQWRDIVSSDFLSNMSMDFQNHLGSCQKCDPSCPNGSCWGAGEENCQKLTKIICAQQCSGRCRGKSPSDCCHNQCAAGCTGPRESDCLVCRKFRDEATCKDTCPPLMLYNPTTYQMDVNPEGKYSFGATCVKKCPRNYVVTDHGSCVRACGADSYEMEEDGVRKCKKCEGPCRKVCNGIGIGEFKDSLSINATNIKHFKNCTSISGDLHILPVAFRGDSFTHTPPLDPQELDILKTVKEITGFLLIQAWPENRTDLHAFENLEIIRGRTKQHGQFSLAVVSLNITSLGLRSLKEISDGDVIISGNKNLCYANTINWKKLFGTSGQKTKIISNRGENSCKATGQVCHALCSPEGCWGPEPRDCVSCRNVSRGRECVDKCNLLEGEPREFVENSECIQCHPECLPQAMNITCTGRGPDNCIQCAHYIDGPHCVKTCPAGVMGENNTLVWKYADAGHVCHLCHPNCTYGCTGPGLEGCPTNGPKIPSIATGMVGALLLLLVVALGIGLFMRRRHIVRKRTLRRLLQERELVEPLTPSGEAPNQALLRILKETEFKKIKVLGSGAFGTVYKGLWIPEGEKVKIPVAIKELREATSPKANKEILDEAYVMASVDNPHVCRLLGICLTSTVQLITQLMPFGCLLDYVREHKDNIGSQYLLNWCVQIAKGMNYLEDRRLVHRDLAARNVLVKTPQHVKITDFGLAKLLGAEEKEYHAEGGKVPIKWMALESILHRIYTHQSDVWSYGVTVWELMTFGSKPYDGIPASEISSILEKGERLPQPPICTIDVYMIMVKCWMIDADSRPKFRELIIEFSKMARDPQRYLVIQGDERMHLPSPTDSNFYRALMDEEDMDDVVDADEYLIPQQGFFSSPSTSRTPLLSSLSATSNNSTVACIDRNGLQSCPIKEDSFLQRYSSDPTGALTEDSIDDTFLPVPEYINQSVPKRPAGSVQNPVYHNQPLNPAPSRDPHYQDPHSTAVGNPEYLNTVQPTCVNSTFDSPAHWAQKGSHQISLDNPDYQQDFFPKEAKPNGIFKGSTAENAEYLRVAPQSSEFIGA
# Chain of ROCK2 (O75116 whole entry, looked up): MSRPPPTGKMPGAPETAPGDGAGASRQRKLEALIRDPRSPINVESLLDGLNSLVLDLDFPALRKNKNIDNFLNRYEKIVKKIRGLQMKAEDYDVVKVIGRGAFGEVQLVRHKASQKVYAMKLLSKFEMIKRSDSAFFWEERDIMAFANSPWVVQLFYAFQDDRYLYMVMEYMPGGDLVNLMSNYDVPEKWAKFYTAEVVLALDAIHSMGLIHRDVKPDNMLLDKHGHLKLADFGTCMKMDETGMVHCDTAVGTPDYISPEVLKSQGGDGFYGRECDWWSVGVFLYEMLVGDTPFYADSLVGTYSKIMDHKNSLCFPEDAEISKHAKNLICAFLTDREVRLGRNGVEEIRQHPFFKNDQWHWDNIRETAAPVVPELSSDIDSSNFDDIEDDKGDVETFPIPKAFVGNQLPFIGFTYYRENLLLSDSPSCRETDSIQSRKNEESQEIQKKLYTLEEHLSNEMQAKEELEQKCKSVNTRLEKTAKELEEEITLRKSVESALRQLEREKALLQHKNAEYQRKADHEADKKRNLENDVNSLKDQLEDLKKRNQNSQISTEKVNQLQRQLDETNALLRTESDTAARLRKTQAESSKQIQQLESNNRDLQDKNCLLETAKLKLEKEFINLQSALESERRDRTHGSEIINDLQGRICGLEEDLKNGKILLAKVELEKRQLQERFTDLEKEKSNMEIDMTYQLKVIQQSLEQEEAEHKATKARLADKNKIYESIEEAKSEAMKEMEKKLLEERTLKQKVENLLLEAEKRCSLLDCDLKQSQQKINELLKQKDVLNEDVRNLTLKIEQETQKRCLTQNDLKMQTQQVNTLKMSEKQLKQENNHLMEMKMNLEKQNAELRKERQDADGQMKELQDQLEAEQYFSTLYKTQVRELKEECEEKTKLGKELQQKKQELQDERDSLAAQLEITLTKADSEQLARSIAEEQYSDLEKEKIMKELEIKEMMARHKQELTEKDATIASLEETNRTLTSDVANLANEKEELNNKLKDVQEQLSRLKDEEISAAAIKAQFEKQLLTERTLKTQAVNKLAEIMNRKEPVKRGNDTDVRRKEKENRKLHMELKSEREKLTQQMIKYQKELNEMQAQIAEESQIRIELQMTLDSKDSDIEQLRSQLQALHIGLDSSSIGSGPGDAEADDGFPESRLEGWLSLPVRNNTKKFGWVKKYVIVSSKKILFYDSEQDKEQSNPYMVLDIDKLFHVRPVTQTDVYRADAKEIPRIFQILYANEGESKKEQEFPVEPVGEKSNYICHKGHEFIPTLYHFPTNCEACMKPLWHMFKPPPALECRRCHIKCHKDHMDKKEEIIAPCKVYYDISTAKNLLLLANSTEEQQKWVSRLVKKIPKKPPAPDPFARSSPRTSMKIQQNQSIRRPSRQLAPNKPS
Structure (SMILES),inhibition (EGFR),inhibition (ROCK2),other results
Cc1ccc(CNc2cncc(-c3cccc(O)c3)c2)cc1O,50 to 90%,50 to 90%,
Oc1cccc(CNc2cncc(-c3cccnc3)c2)c1,50 to 90%,,
Oc1ccc(-c2cncc(NCc3ccc4c(c3)OCO4)c2)cc1,,50 to 90%,
Oc1cccc(CNc2cncc(Cc3cccc(O)c3)c2)c1,,50 to 90%,inhibition (CDK2): > 90%
Oc1cccc(CNc2cncc(-c3cccc(O)c3F)c2)c1,50 to 90%,,
Oc1ccc(-c2cncc(NCc3ccc(F)c(F)c3)c2)cc1,,50 to 90%,
Oc1cccc(CNc2cncc(-c3ccccc3)c2)c1,50 to 90%,,
CC(=O)Nc1cccc(-c2cncc(Nc3ccc(F)cc3)c2)c1,50 to 90%,,
Oc1cccc(CCNc2cncc(-c3cccc(O)c3)c2)c1,> 90%,,
OCc1ccc(-c2cncc(NCc3cccc(O)c3)c2)cc1,50 to 90%,50 to 90%,
CS(=O)(=O)Nc1cccc(-c2cncc(NCc3cccc(O)c3)c2)c1,50 to 90%,,
CN(Cc1cccc(O)c1)c1cncc(-c2cccc(O)c2)c1,,50 to 90%,
CC(=O)Nc1cccc(-c2cncc(NCc3cccc(O)c3)c2)c1,50 to 90%,,inhibition (MAPK14): 50 to 90%
COC(=O)c1cccc(-c2cncc(NCc3cccc(O)c3)c2)c1,,50 to 90%,inhibition (CDK2): > 90%
CN(C)CCNC(=O)c1cccc(-c2cncc(NCc3cccc(O)c3)c2)c1,50 to 90%,,
O=C(NCCO)c1cccc(-c2cncc(NCc3cccc(O)c3)c2)c1,50 to 90%,,
Oc1ccc(-c2cncc(NCc3cccc(O)c3)c2)cc1,50 to 90%,,IC50 (ROCK2): < 1 µM; inhibition (CDK2): > 90%
COc1cccc(-c2cncc(NCc3cccc(O)c3)c2)c1F,50 to 90%,,
COC(=O)c1cccc(CNc2cncc(-c3cccc(O)c3)c2)c1,50 to 90%,,
COc1ccc(-c2cncc(NCc3cccc(O)c3)c2)cc1OC,50 to 90%,,
Oc1cccc(CNc2cncc(-c3ccc(N4CCOCC4)cc3)c2)c1,50 to 90%,,
O=C(O)c1cccc(-c2cncc(NCc3cccc(O)c3)c2)c1,50 to 90%,,
Oc1cccc(CNc2cncc(-c3cccc(O)c3)c2)c1,50 to 90%,50 to 90%,
OCc1cccc(-c2cncc(NCc3cccc(O)c3)c2)c1,50 to 90%,,
COc1cccc(-c2cncc(NCc3cccc(O)c3)c2)c1,50 to 90%,50 to 90%,IC50 (CDK2): < 1 µM
CC(=O)Nc1cccc(-c2cncc(Nc3ccccc3F)c2)c1,50 to 90%,,
Nc1cccc(-c2cncc(NCc3cccc(O)c3)c2)c1,50 to 90%,,
NC(=O)c1cccc(-c2cncc(NCc3cccc(O)c3)c2)c1,50 to 90%,,IC50 (ROCK2): < 1 µM
O=C(Nc1cncc(-c2cccc(O)c2)c1)c1cccc(O)c1,> 90%,,
